In a melting point compilation (Tetko et al.; mined from patent text by program, amines drawn as free bases though some values may be those of a salt) one finds melting point data, which are given here for 36 molecules.

A word on the melting point: it is the temperature, or range, at which the solid turns liquid.

Where only a bound is given, the exact number is not on record here.

For `CN(C)S(=O)(=O)c1ccc2c(C=O)c[nH]c2c1`, the melting point was in the range of 250 to 252 °C. Under `COCC1CN(c2ccc(C3CCC(OC(=O)c4ccccc4)CC3)cc2)C(=O)O1` (racemic) stands 104 to 105 °C; under `CC(C)Sc1c(C(N)=O)sc2ccc(OCc3ccccc3)cc12`, 150 to 152 °C. For the molecule `CCN(CC)c1ccc(C=O)c(OCc2ccccn2)c1`, the melting point was in the range of 78 to 81 °C. For `C=Cn1nc(-c2cc(C(C)(C)C)c(O)c(C(C)(C)C)c2)c2ccc(C)nc21`, the melting point fell in the range of 136 to 137 °C. Under `CC(C)(C)NC(=O)Nc1ccc(-c2c[nH]c(=O)cn2)cc1` stands over 300 °C; under `N#CC1CCc2c(OCCn3ccnc3)cccc21` (stereo unspecified), 115 to 117 °C; under `Cc1cccc(C)c1N1CCCN(c2c(C)cccc2C)C1=N`, 68 to 71 °C. To `O=C(O)c1ccn(-c2ccc(C(=O)O)c(Cl)c2)n1` belongs 260 to 263 °C; to `COc1ccc(OC)c(OCCCCl)c1`, 48 to 50 °C; to `O=C(NCc1ccccc1)c1ccc(-c2ccc3nnn(Cc4ccc5ncccc5c4)c3n2)cc1F`, 163 to 165 °C.

In the case of `CCOC(=O)c1cnc(N(Cc2cc(Br)ccc2OCc2ccccc2)C(=O)OC(C)(C)C)cn1`, the melting point fell in the range of 116 to 117 °C. In turn, `CC(C)c1nc(CO)n(Cc2ccc(=O)[nH]c2)c1Sc1cc(Cl)cc(Cl)c1` yielded a melting point of 220 °C. As for `Cc1cc(C)n(-c2nc(Nc3ccc(Cl)c(Cl)c3)c3ccccc3n2)n1`, the melting point lay in the range of 224 to 226 °C. `CNc1cc2c(cc1OC)OCO2` displayed a melting point of 66 °C.

Consider `COC(=O)c1cccc2c1C(Cc1ccncc1)(Cc1ccnc(F)c1)c1ccccc1-2` (stereo unspecified), for which the melting point fell in the range of 144 to 146 °C.

`Cc1ccc(CNCCOc2cccc3[nH]c(=O)[nH]c23)cc1`: the melting point was in the range of 162 to 163 °C.

For the molecule `COc1ccc2c(c1C)OC(C)(C)CC2=O`, the melting point is 105 to 107 °C. Under `CCN(CC)C(=O)CCc1cc(-c2ccc(Cl)cc2)n(-c2ccc(OC)cc2)n1` stands 111 to 112 °C; under `O=c1[nH]c2cc(C(F)(F)F)ccc2n1CCN1CCN(C(c2ccccc2)c2ccccc2)CC1`, 164 °C; under `C[Si](C)(C)c1ccc(F)c([Si](C)(C)C)c1C(=O)N1CCCC1`, 97 to 100 °C. The molecule `O=C1C2=C(CCCC2)C(=O)N1c1cc(OCC2=CCCSC2)c(Cl)cc1F` displayed a melting point of 134 to 137 °C.

The molecule `Cc1cccc2c1C(=O)N(CO)S2(=O)=O` registered a melting point of 196 to 198 °C. Under `CCOC(=O)CCc1cn(-c2ccccc2)nc1O` stands 116 to 118 °C; under `O=C1CCC(N2C(=O)c3ccc(CNC(=O)c4ccccn4)cc3C2=O)C(=O)N1` (stereo unspecified), 212 to 214 °C; under `CCn1c(=O)c2c(nc(C=Cc3ccc(C(=O)O)cc3OC)n2C)n(CC)c1=O`, over 280 °C. To `COc1ccc(C2(O)CCS(=O)(=O)CC2)cc1OC1CCCC1` belongs 147 to 149 °C; to `CSc1ccc(C(=O)C(C)CC(=O)O)cc1` (stereo unspecified), 69 to 71 °C; to `CC(C)(C)OC(=O)N1CC2(C[C@H]1C(=O)OCOC(=O)C(C)(C)C)SCCS2`, 79.5 to 81 °C. To `O=C(O)C1Cc2c(c(Cl)cc3c(-c4cccc(F)c4)noc23)O1` (stereo unspecified) belongs 209 to 210 °C; to `CN(C)CC(=O)Nc1ccc2c(c1)C(=O)c1cc(NC(=O)CN(C)C)ccc1C2=O`, 218 °C; to `Cc1ccc(C(N)=S)cc1C`, 120 to 125 °C.

In turn, `O=C1N(N2CCCCC2)c2ccccc2C1(O)Cc1ccncc1` (stereo unspecified) yielded a melting point of 156 to 158 °C. For the molecule `CC(C)(C)c1cc2c(s1)C(=O)N(c1cccc(Br)c1CO)C2`, the melting point fell in the range of 55 to 56 °C. Turning to `COc1ccc2[nH]cc(C)c2c1OCc1ccccc1`, the melting point is 60 to 61 °C. To `CSc1cc(C)nc(SC)c1NC(=O)CCCCCCCCSc1nc2ccccc2o1` belongs 123 to 124 °C.
